US20230129258A1, “HETEROTANDEM BICYCLIC PEPTIDE COMPLEXES” (BicycleTx Limited, priority 2019, published 2023)
Where two headings read alike, the source gives them in different places. One block for each substance: values may come before it. Starred links: 1 amine or outer side, 2 acyl side, 3 side chain; linkers in the order of their positions; H or OH if unused. Positions of bridges follow the written chain, without caps; N, C: chain ends. Non-standard residues stand in square brackets, D forms with d. Chains are numbered I, II in the order given. No end group written: not given here. ξ: configuration not given here. *: point of attachment. X1 = O=C(CCOCCOCCOCCN(CCOCCOCCOCCn1cc(CCC(=O)[*:2])nn1)CCOCCOCCOCCn1cc(CCC(=O)[*:3])nn1)[*:1]; TATA = O=C(CC[*:1])N1CN(C(=O)CC[*:2])CN(C(=O)CC[*:3])C1; Dip = N[C@H](C(=O)O)C(c1ccccc1)c1ccccc1; Hyp = O=C(O)[C@@H]1C[C@@H](O)CN1; hArg = N=C(N)NCCCC[C@H](N)C(=O)O; tBuAla = CC(C)(C)C[C@H](N)C(=O)O; Cba = N[C@@H](CC1CCC1)C(=O)O; Nle = CCCC[C@H](N)C(=O)O; Pent4ynoyl = C#CCCC(=O)*; ξP = O=C(O)C1CCCN1

Columns and labels:
CD137 = CD137 (Homo sapiens, UniProt Q07011); assay: CD137 reporter assay (Promega, Jurkat cells) in co-culture with EphA2-expressing tumor cells (A549, PC3, HT29); assay type: cell-based; design: host or cells: Jurkat reporter cells; details: for Emax (fold induction over background): CD137 reporter coculture assay with PC3 tumor cells; for EC50: EC50, CD137 reporter coculture assay with PC3 tumor cells
CD137, sequence (Q07011 24-255): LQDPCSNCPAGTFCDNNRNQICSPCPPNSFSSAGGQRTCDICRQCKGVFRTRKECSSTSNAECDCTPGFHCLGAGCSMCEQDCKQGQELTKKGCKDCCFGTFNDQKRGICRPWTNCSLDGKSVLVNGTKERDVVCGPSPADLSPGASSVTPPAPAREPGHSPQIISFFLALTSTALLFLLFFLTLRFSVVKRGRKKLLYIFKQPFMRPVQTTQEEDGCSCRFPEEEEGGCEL
Procedure, shortened: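 Readout is Bio-Glo luminescence after 6 h, 37° C co-culture of CD137 reporter Jurkat cells, target tumor cells (EphA2: A549, PC3, HT29; PD-L1: RKO) and titrated test articles in 1% FBS RPMI. EC50 (nM) and maximal induction come from fold change over untreated co-culture.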

MC38 tumors = assay: Anti-tumor activity of EphA2/CD137 complexes in syngeneic MC38 tumor model; assay type: in vivo, C57BL/6J-hCD137 mice; details: day 28
Method: 6-8 weeks old C57BL/6J-hCD137 female mice were inoculated in the flank with 1×10^6 syngeneic MC38 cells. When tumors reached 76 mm^3 size on average, mice were randomized to receive vehicle or BCY12491 (intraperitoneal administration). BCY12491 was administered (n=6 mice/treatment cohort) at either 5 mg/kg or 15 mg/kg either daily (QD) or every three days (Q3D). QD dosed mice received 22 doses of BCY12491 and Q3D dosed mice received 8 doses of BCY12491. Tumor growth was monitored by caliper measurements until day 73 after treatment initiation. The results of this experiment may be seen in FIG. 9 where it can be seen that the effect of BCY12491 on tumor growth becomes apparent in the first two weeks of the dosing period reducing the tumor growth and causing reduction of volumes of many of the treated tumors. By day 41, 15 out of 24 BCY12491 treated animals had completely responded to the treatment and had no palpable tumors left.
6-8 week old female C57BL/6J-hCD137 mice [B-hTNFRSF9(CD137) mice; Biocytogen] were implanted subcutaneously with 1×10^6 MC38 cells. Mice were randomized into treatment groups (n=6/cohort) when average tumor volumes reached around 76 mm^3 and were treated with daily doses of vehicle (25 mM histidine, 10% sucrose, pH7). BCY12491 treatment was conducted at two different dose levels (5 and 15 mg/kg) and two different dosing schedules (QD: daily; Q3D: every three days). Animals received either 22 QD doses or 8 Q3D doses intraperitoneally (ip). Tumor growth was monitored until tumor reached volumes over 2000 mm^3 or until 73 days after treatment initiation. After Day 73, 5 complete responder animals were re-challenged with MC38 tumor cell implantation alongside with 5 naïve C57BL/6J-hCD137 mice. Tumor growth was monitored for 20 days.
(§1) 6-8 week old female C57BL/6J-hCD137 mice [B-hTNFRSF9(CD137) mice; Biocytogen] were implanted subcutaneously with 1×10^6 MC38 cells. Mice were randomized into treatment groups (n=6/cohort) when average tumor volumes reached around 92 mm^3 and were treated intravenously with Q3D doses of vehicle (25 mM histidine, 10% sucrose, pH7), 15 mg/kg of BCY12730, BCY12723 or BCY12491 (7 Q3D doses). Tumor growth was monitored for 28 days or until tumors exceeded 2000 mm^3.
as §1, with “76” for “92”, “twice weekly (BIW)” for “Q3D”, “5” for “15”, “BCY13048, BCY13050,” for “BCY12730, BCY12723”, “(6 BIW” for “(7 Q3D”

[1] = Pharmacokinetics in SD rats; assay type: in vivo; details: rat; for half-life: iv, read-out: T1/2 (converted); for clearance: read-out: Clp; for Vd: read-out: Vdss
Method: (§2) Male SD Rats were dosed with each heterotandem Bicycle peptide complex formulated in 25 mM Histidine HCl, 10% sucrose pH 7 by IV bolus or IV infusion (15 minutes). Serial bleeding (about 80 μL blood/time point) was performed via submandibular or saphenous vein at each time point. All blood samples were immediately transferred into prechilled microcentrifuge tubes containing 2 μL K2-EDTA (0.5M) as anti-coagulant and placed on wet ice. Blood samples were immediately processed for plasma by centrifugation at approximately 4° C., 3000 g. The precipitant including internal standard was immediately added into the plasma, mixed well and centrifuged at 12,000 rpm, 4° C. for 10 minutes. The supernatant was transferred into pre-labeled polypropylene microcentrifuge tubes, and then quick-frozen over dry ice. The samples were stored at […] or below as needed until analysis. 7.5 μL of the supernatant samples were directly injected for LC-MS/MS analysis using an Orbitrap Q Exactive in positive ion mode to determine the concentrations of analyte. Plasma concentration versus time data were analyzed by non-compartmental approaches using the Phoenix WinNonlin 6.3 software program. C0, CI, Vdss, T½, AUC(0-last), AUC(0-inf), MRT(0-last), MRT(0-inf) and graphs of plasma concentration versus time profile were reported.

human PBMCs = assay: Human PBMC co-culture cytokine secretion assay with EphA2-expressing tumor cells (MC38, HT-1080, HT29); assay type: cell-based
Method: […] MC38 were cultured in Dulbecco's Modified Eagle Medium supplemented with 10% heat inactivated Fetal Bovine Serum (FBS), 1× Penicillin/Streptomycin, 10 mM HEPES, and 2 mM L-Glutamine (referred to as R10 medium). Frozen PBMCs from healthy human donors were thawed and washed once in room temperature PBS with benzonase, and then resuspended in RPMI supplemented with 10% heat inactivated Fetal Bovine Serum (FBS), 1× Penicillin/Streptomycin, 10 mM HEPES, and 2 mM L-Glutamine (herein referred to as R10 medium). 100 μl of PBMCs (1,000,000 PBMCs/ml) and 100 μl of tumor cells (100,000 tumor cells/ml) (Effector:Target cell ratio (E:T) 10:1) were plated in each well of a 96 well flat bottom plate for the co-culture assay. 100 ng/ml of soluble anti-CD3 mAb (clone OKT3) was added to the culture on day 0 to stimulate human PBMCs. Test, control compounds, or vehicle controls were diluted in R10 media and 50 μL was added to respective wells to bring the final volume per well to 250 μL. Plates were covered with a breathable film and incubated in a humidified chamber at 37° C. with 5% CO2 for two days. […] Briefly, the standards and samples were added to a black 96 well plate. Microparticle cocktail (provided in Luminex kit, R&D Systems) was added and shaken for 2 hours at room temperature. The plate was washed 3 times using a magnetic holder. Biotin cocktail was then added to the plate and shaken for 1 hour at RT. The plate was washed 3 times using a magnetic holder. Streptavidin cocktail was added to the plate and shaken for 30 minutes at RT. The plates were washed 3 times using a magnetic holder, resuspended in 100 μL of wash buffer, shaken for 2 minutes at RT, and read using the Luminex 2000. Raw data were analyzed using built-in Luminex software to generate standard curves and interpolate protein concentrations, all other data analyses and graphing were performed using Excel and Prism software. Data represents one study with three independent donor PBMCs tested in experimental duplicates.
Similarly, PBMCs from healthy donors were co-cultured with EphA2 expressing cancer cells (MC38 and HT-1080) at a ratio of 5:1 in presence of anti-CD3 and BCY13272. […]

[2] = Pharmacokinetics in CD1 mice; assay type: in vivo, CD-1 mice; details: mouse, in vivo; mice, after IP injection; read-out: circulating plasma half-life (converted)
Method: as §2, with “Serial” for “Male SD Rats were dosed with each heterotandem Bicycle peptide complex formulated in 25 mM Histidine HCl, 10% sucrose pH 7 by IV bolus or IV infusion (15 minutes). Serial”

[3] = Pharmacokinetics in cynomolgus monkey; assay type: in vivo; details: in vivo, IV infusion (15 min), 1 mg/kg
Method: Serial bleeding (about 1.2 ml blood/time point) was performed from a peripheral vessel from restrained, non-sedated animals at each time point into a commercially available tube containing Potassium (K2) EDTA*2H2O (0.85-1.15 mg) on wet ice and processed for plasma. Samples were centrifuged (3,000×g for 10 minutes at 2 to 8° C.) immediately after collection. 0.1 mL plasma was transferred into labelled polypropylene micro-centrifuge tubes. 5-fold of the precipitant including internal standard 100 ng/mL Labetalol & 100 ng/mL dexamethasone & 100 ng/mL tolbutamide & 100 ng/mL Verapamil & 100 ng/mL Glyburide & 100 ng/mL Celecoxib in MeOH was immediately added into the plasma, mixed well and centrifuged at 12,000 rpm for 10 minutes at 2 to 8° C. Samples of supernatant were transferred into the pre-labeled polypropylene microcentrifuge tubes, and frozen over dry ice. The samples were stored at −60° C. or below until LC-MS/MS analysis. An aliquot of 40 μL calibration standard, quality control, single blank and double blank samples were added to the 1.5 mL tube. Each sample (except the double blank) was quenched with 200 μL IS1 respectively (double blank sample was quenched with 200 μL MeOH with 0.5% tritonX-100), and then the mixture was vortex-mixed well (at least 15 s) with vortexer and centrifuged for 15 min at 12000 g, 4° C. A 10 μL supernatant was injected for LC-MS/MS analysis using an Orbitrap Q Exactive in positive ion mode to determine the concentrations of analyte. Plasma concentration versus time data were analyzed by non-compartmental approaches using the Phoenix WinNonlin 6.3 software program. C0, CI, Vdss, T½, AUC(0-last), AUC(0-inf), MRT(0-last), MRT(0-inf) and graphs of plasma concentration versus time profile were reported.

[4] = male, SD, plasma, IV Inf (15 minutes)
[5] = human PBMC-MC38 co-culture, Donor 1, 72 h incubation, read-out: Donor 1 EC50 of IFNγ secretion
[6] = human PBMC-MC38 co-culture, Donor 2, 72 h incubation, read-out: Donor 2 EC50 of IFNγ secretion

Substance: I: A[hArg]DC[Hyp][Cba]VN[ξP]LCLHP[dD]W[hArg]C-NH2 / II: Ac-C[tBuAla]PE[dK]PYCFADPY[Nle]CA-NH2 / III: Ac-C[tBuAla]PE[dK]PYCFADPY[Nle]CA-NH2 (linker I:4-I:11-I:18, II:1-II:8-II:15, III:1-III:8-III:15 via TATA; linker I:N-II:5-III:5 via X1) [BCY13050]
Emax (fold induction over background) (CD137): 42.46
EC50 (CD137): 0.09 nM
complete responses (MC38 tumors; 5 mg/kg IV BIW, 6 doses): 3 out of 6
half-life [1, 4]: 3.3 h
clearance [1, 4]: 11 mL/min/kg
Vd [1, 4]: 1.4 L/kg
EC50 (human PBMCs; [5]): 0.38 nM
EC50 (human PBMCs; [6]): 0.19 nM

Substance: I: A[hArg]DC[Hyp]LVNPLCL[Dip]P[dD]WTC-NH2 / II: Ac-C[tBuAla]PE[dK]PYCFADPY[Nle]CA-NH2 / III: Ac-C[tBuAla]PE[dK]PYCFADPY[Nle]CA-NH2 (linker I:4-I:11-I:18, II:1-II:8-II:15, III:1-III:8-III:15 via TATA; linker I:N-II:5-III:5 via X1) [BCY13047]
Emax (fold induction over background) (CD137): 46.43
EC50 (CD137): 0.07 nM
EC50 (human PBMCs; human PBMC-MC38 co-culture, Donor 1, 48 h incubation, read-out: Donor 1 EC50 of IFNγ secretion): 0.31 nM
EC50 (human PBMCs; human PBMC-MC38 co-culture, Donor 2, 48 h incubation, read-out: Donor 2 EC50 of IFNγ secretion): 0.3 nM

Substance: I: A[hArg]DC[Hyp]LVNPLCLHP[dD]W[hArg]C-NH2 / II: Ac-C[tBuAla]PE[dK]PYCFADPY[Nle]CA-NH2 / III: Ac-C[tBuAla]PE[dK]PYCFADPY[Nle]CA-NH2 (linker I:4-I:11-I:18, II:1-II:8-II:15, III:1-III:8-III:15 via TATA; linker I:N-II:5-III:5 via X1) [BCY12491]
half-life [2]: 2.5 h
half-life ([1]; in vivo, IV Bolus): 1.3 h
clearance ([1]; in vivo, IV Bolus): 20 mL/min/kg
Vd ([1]; in vivo, IV Bolus): 1.6 L/kg
clearance ([3]; read-out: Clp): 3 mL/min/kg
half-life ([3]; read-out: T1/2 (converted)): 3.2 h
Vd ([3]; read-out: Vdss): 0.36 L/kg
EC50 (human PBMCs; MC38 co-culture, donor 228711, read-out: EC50 of IFN-γ cytokine secretion): 0.085 nM
EC50 (human PBMCs; MC38 co-culture, donor 228769, read-out: EC50 of IFN-γ cytokine secretion): 0.034 nM

Fold Improvement over BCY9173, EC50 (nM) (CD137; co-culture with PC3): 2.2 fold
Fold Improvement over Emax (CD137; co-culture with PC3, versus BCY9173): 1.8 fold
Substance: BCY12723: EphA2:CD137 1:2; BCY9594 + 2x BCY12143; linker N-(acid-PEG3)-N-bis(PEG3-azide) (peptide 1 A[hArg]DC[Hyp]LVNPLCLHP[dD]W[hArg]C; peptide 2 Ac-C[tBuAla]EE[dK](Pent4ynoyl)PYCFADPY[Nle]C; linker I:4-I:11-I:18, II:1-II:8-II:15 via TATA; not fully specified (bridges); also: chain 2 present twice on linker, EphA2:CD137 1:2)
complete responses (MC38 tumors; 15 mg/kg IV Q3D, 7 doses): 2 out of 6
EC50 (human PBMCs; [5]): 0.13 nM
EC50 (human PBMCs; [6]): 0.095 nM
